Reference: US20250042880A1 (UNIVERSITY OF KENTUCKY RESEARCH FOUNDATION, priority 2021, published 2025)

Columns and labels:
HCT116 cells = experiment: Cell proliferation inhibition assay, HCT116; type: cell-based; details: Homo sapiens, HCT-116, 120 h; 5 days, viable cells counted
Procedure: (§1) Cell proliferation inhibition assay-Cell proliferation inhibition assay was performed as previously reported (48). All compounds to be tested were dissolved at 10 mM in DMSO. The cells were seeded into 12-well plates at a density of 40,000 cells per well in 1 mL of culture medium and were cultured overnight at 37° C. Either 1 μL of the compounds or the vehicle control (DMSO) was added to the cells. After 5 days, the medium was removed, and 200 μL of 0.25% trypsin was added. The cells were resuspended in 800 μL phosphate-buffered saline (PBS) and counted with Vi-CELL XR 2.03 (Beckman Coulter, Inc. USA). The ratio R of the number of viable cells in the compound-treated group to the number of viable cells in the DMSO-treated group was called relative growth rate, and the growth inhibition was calculated as (1−R)*100.
(§2) Cell proliferation inhibition assay was conducted according to a previous report (48). The cells were split into 12-well plates at a density of 40,000 cells per well in 1 mL of culture medium and were cultured overnight at 37° C. Either 1 μL of the compounds dissolved at 10 mmol/L in DMSO or the vehicle control (DMSO) was added to the cells. After 5 days, removed the medium, and 200 μL of 0.25% trypsin was added. The cells were resuspended in phosphate-buffered saline (PBS) and counted with Vi-CELL XR 2.03 (Beckman Coulter, Inc. USA). The ratio R of the number of viable cells in the compound treatment group to the number of viable cells in the DMSO treatment group was defined as the relative growth rate, and the growth inhibition rate was calculated as (1−R)*100.

LS174T cells [1] = experiment: Cell proliferation inhibition assay, LS174T; type: cell-based; details: for IC50: Homo sapiens, LS174T, 120 h, 5 days, viable cells counted
Procedure: as §1, §2

LS174T cells [2] = experiment: Apoptosis by flow cytometry (Annexin V-FITC/PI); type: cell-based; details: 24 h, DBI-6 3 μM, BAY-876 1 μM, DMSO 17.28%
Procedure: LS174T cells were cultured in 6-well plates at 37° C. for 24 hours. 3 μmol/L DBI-6 or 1 μmol/L BAY-876 were added to the cells and incubated for 24 hours. Cells of combination therapy group were treated with both DBI-6 and BAY-876. Then cells were harvested and washed with cold PBS twice and resuspended in 500 μL Binding Buffer. SubsequenμLy, the cells were stained with Annexin V-FITC and propidium iodide (PI) and incubated in dark for 5 minutes. The percentages of apoptosis and necrosis were determined by flow cytometry (BeckmanCoulter, Brea, CA, USA).

LS174T xenografts = LS174T xenografts in Rag1 mice; type: in vivo, mouse; details: DBI-6 40 mg/kg/day IP, BAY-876 3 mg/kg oral, 12 days
Description: Rag1 mice of 6 to 8 weeks of age were kindly provided by Institute of Genetics and Developmental Biology, Chinese Academy of sciences. LS174T cells in exponential growth phase were harvested and mixed with an equal volume of Matrigel (Corning, Glendale, Arizona). Each mouse was subcutaneously injected on the lower flanks with 2×10^6 cells. Tumor cell-injected mice were randomly divided into control and treatment groups when tumors were established and reached an average volume of 100 mm^3 (3 male and 3 female mice/group, two tumors on each mouse).
After tumors were established, DBI-6 was formulated in a mixture of ethanol (5%), 20% solutol and 20% Cremophor EL (50%) and Citric acid (45%; 50 mmol/L, pH4.5) and was daily intraperitoneally administered to the DBI-6 group at dose of 40 mg/kg mouse body weight. BAY-876 was dissolved in DMSO (10%), PEG400 (25%), Tween 80 (5%) and PBS (60%) and was given to the mice by gavage feeding to the BAY-876 group at a daily dose of 3 mg/kg mouse body weight. […]
The tumor sizes and mouse weights were measured every three days with calipers, and the tumor volume (Length×width^2/2) were calculated. […] Then the tumor sections were analyzed with H&E and Ki-67 staining. Plasma was collected and analyzed with the assay kit (Jiancheng Bioengineering Institute, Nanjing, China) according to the manufacturer's protocol. […]

GLUT1 = biological target: T1, GLUT1 (Homo sapiens, UniProt P11166); details: cited from earlier work
T1 sequence (P11166 1-492): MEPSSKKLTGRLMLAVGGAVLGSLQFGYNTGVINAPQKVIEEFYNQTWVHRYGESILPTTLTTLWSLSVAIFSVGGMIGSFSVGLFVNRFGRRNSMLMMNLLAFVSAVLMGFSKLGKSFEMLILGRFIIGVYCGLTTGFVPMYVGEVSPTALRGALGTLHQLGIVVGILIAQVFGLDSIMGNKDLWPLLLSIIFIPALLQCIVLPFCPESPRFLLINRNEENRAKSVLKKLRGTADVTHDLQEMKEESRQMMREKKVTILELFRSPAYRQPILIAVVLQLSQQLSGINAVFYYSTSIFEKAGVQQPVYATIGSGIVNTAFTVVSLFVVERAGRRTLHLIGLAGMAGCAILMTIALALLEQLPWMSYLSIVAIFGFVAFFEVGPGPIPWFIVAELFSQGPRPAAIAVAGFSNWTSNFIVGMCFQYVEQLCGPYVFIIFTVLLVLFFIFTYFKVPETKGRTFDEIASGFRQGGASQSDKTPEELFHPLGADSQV

DLD-1 CRC cells = details: cited from earlier work

In the case of `Cc1c(NC(=O)c2cc(C(N)=O)nc3cc(F)ccc23)c(C(F)(F)F)nn1Cc1ccc(C#N)cc1` [BAY-876, N^4-[1-(4-cyanobenzyl)-5-methyl-3-(trifluoromethyl)-1H-pyrazol-4-yl]-7-fluoroquinoline-2,4-dicarboxamide], the IC50 (HCT116 cells) is reported as 170 nM, the “inhibition of proliferation of LS174T cells” value (LS174T cells [1]) is reported as “inhibited the proliferation of these cell lines at nanomolar concentrations” and the IC50 (LS174T cells [1]) is reported as 130 nM. For the same compound, the “apoptosis rate (percentage of apoptotic cells)” value (LS174T cells [2]) was 34.57%, the tumor growth (LS174T xenografts) was “Tumor growth was inhibited” and the “potency for the GLUT1 transporter” value (GLUT1) was “single-digit, nanomolar”. For the same compound, the “selectivity factor for GLUT1 in comparison with GLUT2, GLUT3 and GLUT4” value (GLUT1) was greater than 100 and the IC50 (DLD-1 CRC cells) was 2 nM.

With `O=c1c(-c2ccc(Cl)c(Cl)c2)coc2cc(OCCN3CCN(CCO)CC3)ccc12` [DBI-6, 3-(3,4-dichlorophenyl)-7-(2-(4-(2-hydroxyethyl)piperazin-1-yl)ethoxy)-4H-chromen-4-one] the IC50 (HCT116 cells) was 530 nM, the IC50 (LS174T cells [1]) was 1140 nM and the “apoptosis rate (percentage of apoptotic cells)” value (LS174T cells [2]) was 30.61%. For the same compound, the tumor growth (LS174T xenografts) was “Tumor growth was inhibited”.
